Test results taken from patent publication US12577245B2, “Sulfonyl benzamide derivatives as Bcl-2 inhibitors” (ASCENTAGE PHARMA (SUZHOU) CO., LTD., priority 2021, dated 2026).
pIC50: −log10 of the molar value.

Key:
[1] = target: Bcl-2 WT (Homo sapiens, UniProt P10415); test: Bcl-2 WT inhibition, fluorescence polarization (Flu-BIM tracer) binding assay; conditions: FP; 20 nM Bcl2, 5 nM Flu-BIM, 1 h incubation; read-out: Bcl-2 w.t. (FP)
[2] = tested on: MV-4-11 cells; test: CCK-8 cell viability assay in MV-4-11 cells; format: cell-based; conditions: Homo sapiens, MV4-11, 72 h, 10% FBS, 3 days
Method: MV-4-11 cells were obtained from University of Michigan. Cells were maintained in the RPMI-1640 medium with 10% FBS and 1% P/S at 37° C. and an atmosphere of 5% CO2.
• The effect of representative Compounds of the Disclosure on cell viability was determined using Cell Counting Kit-8 (CCK-8) assay (Shanghai Life iLab Biotech) according to the manufacturer's instructions. Each tested compound was serially diluted in culture medium, and 100 μL of the compound dilution was added to the corresponding well of the cell plate. 100 μL of MV-4-11 cell suspension (20000 cells/well) in culture medium were seeded into 96-well plates. The cells were incubated at 37° C. in an atmosphere of 5% CO2 for 3 days. At the end of 3 days, 20 μL of CCK-8 solution was added to each well of the plate and incubated for 1-4 hours. The plates were read at 450 nm on the Biotek plate reader. The readings were normalized to the vehicle cells, and the IC50 was calculated using GraphPad Prism 8 software.

[3] = tested on: RS4; 11Bcl-2-G101V cells; test: CellTiter-Glo (CTG) cell viability assay in RS4;11-Bcl-2-G101V cells; format: cell-based; conditions: 72 h, 10% FBS, 3 days
Method: RS4; 11Bcl-2-G101V, RS4; 11Bcl-2-D103E, RS4; 11Bcl-2-V156D and RS4; 11Bcl-2-G101V-D103E cells were obtained from Cobioer Biosciences. Cells were maintained in the RPMI-1640 medium with 10% FBS, 1% P/S and puromycin (1 μg/mL) at 37° C. and an atmosphere of 5% CO2.
• The effect of representative Compounds of the Disclosure on cell viability was determined using CellTiter-Glo® (CTG) luminescent cell viability assay (Promega, USA) according to the manufacturer's instructions. 95 μL of cell suspension (10000 cells/well) in culture medium were seeded into 96-well plates and cultured 4 hours. Each tested compound was serially diluted in blank culture medium, and 5 μL of the compound dilution was added to the corresponding well of the cell plate. After the addition of the tested compound, the cells were incubated at 37° C. in an atmosphere of 5% CO2 for 3 days. At the end of 3 days, 30 μL of CTG solution was added to each well of the plate and mix contents for 2 minutes on an orbital shaker. Allow the plate to incubate at room temperature for 15 mins to stabilize signal and record RLU on the Biotek plate reader. The readings were normalized to the vehicle cells, and the IC50 was calculated using GraphPad Prism 8 software.

Chain of Bcl-2 WT (P10415 whole entry): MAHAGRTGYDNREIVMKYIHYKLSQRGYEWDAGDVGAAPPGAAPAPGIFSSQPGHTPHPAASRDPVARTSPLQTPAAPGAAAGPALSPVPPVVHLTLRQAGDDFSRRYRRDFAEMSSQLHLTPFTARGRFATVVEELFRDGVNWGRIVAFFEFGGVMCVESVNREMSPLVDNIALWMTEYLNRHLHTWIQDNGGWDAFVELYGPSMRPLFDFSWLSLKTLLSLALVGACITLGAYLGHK

SMILES | pIC50 [1] | pIC50 [2] | pIC50 [3]
CC1(C)CCC(CN2CCN(c3ccc(C(=O)NS(=O)(=O)c4ccc(NC[C@H]5CC[C@](C)(O)CC5)c([N+](=O)[O-])c4)c(Oc4cnc5[nH]ccc5c4)c3)CC2)=C(c2cc(-c3ccc(C(C)(C)C#N)cc3)cs2)C1 [Example 56, 2-((1H-pyrrolo[2,3-b]pyridin-5-yl)oxy)-4-(4-((2-(4-(4-(2-cyanopropan-2-yl)phenyl)thiophen-2-yl)-4,4-dimethylcyclohex-1-en-1-yl)methyl)piperazin-1-yl)-N-((4-((((1r,4r)-4-hydroxy-4-methylcyclohexyl)methyl)amino)-3-nitrophenyl)sulfonyl)benzamide] | 7.79 | 7.17 | 5.72
CC1(C)CCC(CN2CCN(c3ccc(C(=O)NS(=O)(=O)c4ccc(NC[C@H]5CC[C@](C)(O)CC5)c([N+](=O)[O-])c4)c(Oc4cnc5[nH]ccc5c4)c3)CC2)=C(c2cc(-c3ccc(F)c(F)c3F)cs2)C1 [Example 46, 2-((1H-pyrrolo[2,3-b]pyridin-5-yl)oxy)-4-(4-((4,4-dimethyl-2-(4-(2,3,4-trifluorophenyl)thiophen-2-yl)cyclohex-1-en-1-yl)methyl)piperazin-1-yl)-N-((4-((((1r,4r)-4-hydroxy-4-methylcyclohexyl)methyl)amino)-3-nitrophenyl)sulfonyl)benzamide] | 7.65 | 8.05 | 6.64
CC1(C)CCC(CN2CCN(c3ccc(C(=O)NS(=O)(=O)c4ccc(NC[C@H]5CC[C@](C)(O)CC5)c([N+](=O)[O-])c4)c(Oc4cnc5[nH]ccc5c4)c3)CC2)=C(c2cc(-c3ccc(C(C)(O)C(F)(F)F)cc3F)cs2)C1 (stereo partly drawn) [Example 78, 2-((1H-pyrrolo[2,3-b]pyridin-5-yl)oxy)-4-(4-((2-(4-(2-fluoro-4-(1,1,1-trifluoro-2-hydroxypropan-2-yl)phenyl)thiophen-2-yl)-4,4-dimethylcyclohex-1-en-1-yl)methyl)piperazin-1-yl)-N-((4-((((1r,4r)-4-hydroxy-4-methylcyclohexyl)methyl)amino)-3-nitrophenyl)sulfonyl)benzamide] | 7.78 | 7.23 | 6.24
CC1(C)CCC(CN2CCN(c3ccc(C(=O)NS(=O)(=O)c4ccc(NC[C@H]5CC[C@@](C)(O)CC5)c([N+](=O)[O-])c4)c(Oc4cnc5[nH]ccc5c4)c3)CC2)=C(c2cc(-c3ccc(F)cc3)cs2)C1 [Example 36, 2-((1H-pyrrolo[2,3-b]pyridin-5-yl)oxy)-4-(4-((2-(4-(4-fluorophenyl)thiophen-2-yl)-4,4-dimethylcyclohex-1-en-1-yl)methyl)piperazin-1-yl)-N-((4-((((1s,4s)-4-hydroxy-4-methylcyclohexyl)methyl)amino)-3-nitrophenyl)sulfonyl)benzamide] | 7.44 | 7.44 | 6.24
CC1(C)CCC(CN2CCN(c3ccc(C(=O)NS(=O)(=O)c4ccc(NC[C@H]5CC[C@](C)(O)CC5)c([N+](=O)[O-])c4)c(Oc4cnc5[nH]ccc5c4)c3)CC2)=C(c2cc(-c3ccc(F)cc3F)cs2)C1 [Example 43, 2-((1H-pyrrolo[2,3-b]pyridin-5-yl)oxy)-4-(4-((2-(4-(2,4-difluorophenyl)thiophen-2-yl)-4,4-dimethylcyclohex-1-en-1-yl)methyl)piperazin-1-yl)-N-((4-((((1r,4r)-4-hydroxy-4-methylcyclohexyl)methyl)amino)-3-nitrophenyl)sulfonyl)benzamide] | 7.67 | 8.10 | 6.55
CC1(C)CCC(CN2CCN(c3ccc(C(=O)NS(=O)(=O)c4ccc(NC[C@H]5CC[C@](C)(O)CC5)c([N+](=O)[O-])c4)c(Oc4cnc5[nH]ccc5c4)c3)CC2)=C(c2cc(CN3CCOCC3)cs2)C1 [Example 24, 2-((1H-pyrrolo[2,3-b]pyridin-5-yl)oxy)-4-(4-((4,4-dimethyl-2-(4-(morpholinomethyl)thiophen-2-yl)cyclohex-1-en-1-yl)methyl)piperazin-1-yl)-N-((4-((((1r,4r)-4-hydroxy-4-methylcyclohexyl)methyl)amino)-3-nitrophenyl)sulfonyl)benzamide] | 7.80 | 7.40 | 6.47
CC1(C)CCC(CN2CCN(c3ccc(C(=O)NS(=O)(=O)c4ccc(NC[C@H]5COCCO5)c([N+](=O)[O-])c4)c(Oc4cnc5[nH]ccc5c4)c3)CC2)=C(c2cc(Nc3ncccn3)cs2)C1 [Example 19, (S)—N-((4-(((1,4-dioxan-2-yl)methyl)amino)-3-nitrophenyl)sulfonyl)-2-((1H-pyrrolo[2,3-b]pyridin-5-yl)oxy)-4-(4-((4,4-dimethyl-2-(4-(pyrimidin-2-ylamino)thiophen-2-yl)cyclohex-1-en-1-yl)methyl)piperazin-1-yl)benzamide] | 7.61 | 6.86 | 6.01
Cc1ccc(C2=C(CN3CCN(c4ccc(C(=O)NS(=O)(=O)c5ccc(NCC6CCOCC6)c([N+](=O)[O-])c5)c(Oc5cnc6[nH]ccc6c5)c4)CC3)CCC(C)(C)C2)s1 [Example 6, 2-((1H-pyrrolo[2,3-b]pyridin-5-yl)oxy)-4-(4-((4,4-dimethyl-2-(5-methylthiophen-2-yl)cyclohex-1-en-1-yl)methyl)piperazin-1-yl)-N-((3-nitro-4-(((tetrahydro-2H-pyran-4-yl)methyl)amino)phenyl)sulfonyl)benzamide] | 7.79 | 7.18 | 5.40
CC1(C)CCC(CN2CCN(c3ccc(C(=O)NS(=O)(=O)c4ccc(NC[C@H]5CC[C@](C)(O)CC5)c([N+](=O)[O-])c4)c(Oc4cnc5[nH]ccc5c4)c3)CC2)=C(c2cc(-c3ccc(C(C)(C)O)c(F)c3)cs2)C1 [Example 71, 2-((1H-pyrrolo[2,3-b]pyridin-5-yl)oxy)-4-(4-((2-(4-(3-fluoro-4-(2-hydroxypropan-2-yl)phenyl)thiophen-2-yl)-4,4-dimethylcyclohex-1-en-1-yl)methyl)piperazin-1-yl)-N-((4-((((1r,4r)-4-hydroxy-4-methylcyclohexyl)methyl)amino)-3-nitrophenyl)sulfonyl)benzamide] | 7.81 | 7.92 | 6.48
Cc1cscc1C1=C(CN2CCN(c3ccc(C(=O)NS(=O)(=O)c4ccc(NCC5CCOCC5)c([N+](=O)[O-])c4)c(Oc4cnc5[nH]ccc5c4)c3)CC2)CCC(C)(C)C1 [Example 2, 2-((1H-pyrrolo[2,3-b]pyridin-5-yl)oxy)-4-(4-((4,4-dimethyl-2-(4-methylthiophen-3-yl)cyclohex-1-en-1-yl)methyl)piperazin-1-yl)-N-((3-nitro-4-(((tetrahydro-2H-pyran-4-yl)methyl)amino)phenyl)sulfonyl)benzamide] | 7.80 | 7.55 | 5.89
CC1(C)CCC(CN2CCN(c3ccc(C(=O)NS(=O)(=O)c4ccc(NC[C@H]5CC[C@](C)(O)CC5)c([N+](=O)[O-])c4)c(Oc4cnc5[nH]ccc5c4)c3)CC2)=C(c2cc(-c3c(F)cc(C(C)(C)C(=O)O)cc3F)cs2)C1 [Example 82, 2-(4-(5-(2-((4-(3-((1H-pyrrolo[2,3-b]pyridin-5-yl)oxy)-4-(((4-((((1r,4r)-4-hydroxy-4-methylcyclohexyl)methyl)amino)-3-nitrophenyl)sulfonyl)carbamoyl)phenyl)piperazin-1-yl)methyl)-5,5-dimethylcyclohex-1-en-1-yl)thiophen-3-yl)-3,5-difluorophenyl)-2-methylpropanoic acid] | 7.74 | 6.94 | 5.90
CCC(O)(CC)c1cc(F)c(-c2csc(C3=C(CN4CCN(c5ccc(C(=O)NS(=O)(=O)c6ccc(NC[C@H]7CC[C@](C)(O)CC7)c([N+](=O)[O-])c6)c(Oc6cnc7[nH]ccc7c6)c5)CC4)CCC(C)(C)C3)c2)c(F)c1 [Example 67, 2-((1H-pyrrolo[2,3-b]pyridin-5-yl)oxy)-4-(4-((2-(4-(2,6-difluoro-4-(3-hydroxypentan-3-yl)phenyl)thiophen-2-yl)-4,4-dimethylcyclohex-1-en-1-yl)methyl)piperazin-1-yl)-N-((4-((((1r,4r)-4-hydroxy-4-methylcyclohexyl)methyl)amino)-3-nitrophenyl)sulfonyl)benzamide] | 7.56 | 6.60 | 6.08
